Results taken from ChEMBL document CHEMBL5528042, “Identification of Novel, Selective Ataxia-Telangiectasia Mutated Kinase Inhibitors with the Ability to Penetrate the Blood-Brain Barrier: The Discovery of AZD1390” (J Med Chem, 2024).
Values after ≈ are worked out from the molar mass of the structure shown.

Legend:
[1] = Bioavailability in rat at 1 mg/kg,po or 0.5 mg/kg,iv administration measured for 24 hrs by LC-MS/MS analysis; format: ADME, organism-based; conditions: in vivo
[2] = Bioavailability in dog at 2 mg/kg,po or 1 mg/kg,iv administration measured for 24 hrs by LC-MS/MS analysis; format: ADME, organism-based, Canis lupus familiaris; conditions: in vivo
[3] = Volume of distribution at steady state in rat at 1 mg/kg,po or 0.5 mg/kg,iv administration measured for 24 hrs by LC-MS/MS analysis; format: ADME, organism-based; conditions: in vivo
[4] = Dissociation constant, pKa of compound; format: physicochemical
[5] = Volume of distribution at steady state in dog at 2 mg/kg,po or 1 mg/kg,iv administration measured for 24 hrs by LC-MS/MS analysis; format: ADME, organism-based, Canis lupus familiaris; conditions: in vivo
[6] = biological target: Serine/threonine-protein kinase ATR (Homo sapiens, UniProt Q13535); assay: Inhibition of ATR in human HT-29 cells incubated for 2 hrs by Alexa Fluor 488/Hoeschst staining based plate reader assay; format: cell-based
Sequence of Serine/threonine-protein kinase ATR (Q13535 whole entry): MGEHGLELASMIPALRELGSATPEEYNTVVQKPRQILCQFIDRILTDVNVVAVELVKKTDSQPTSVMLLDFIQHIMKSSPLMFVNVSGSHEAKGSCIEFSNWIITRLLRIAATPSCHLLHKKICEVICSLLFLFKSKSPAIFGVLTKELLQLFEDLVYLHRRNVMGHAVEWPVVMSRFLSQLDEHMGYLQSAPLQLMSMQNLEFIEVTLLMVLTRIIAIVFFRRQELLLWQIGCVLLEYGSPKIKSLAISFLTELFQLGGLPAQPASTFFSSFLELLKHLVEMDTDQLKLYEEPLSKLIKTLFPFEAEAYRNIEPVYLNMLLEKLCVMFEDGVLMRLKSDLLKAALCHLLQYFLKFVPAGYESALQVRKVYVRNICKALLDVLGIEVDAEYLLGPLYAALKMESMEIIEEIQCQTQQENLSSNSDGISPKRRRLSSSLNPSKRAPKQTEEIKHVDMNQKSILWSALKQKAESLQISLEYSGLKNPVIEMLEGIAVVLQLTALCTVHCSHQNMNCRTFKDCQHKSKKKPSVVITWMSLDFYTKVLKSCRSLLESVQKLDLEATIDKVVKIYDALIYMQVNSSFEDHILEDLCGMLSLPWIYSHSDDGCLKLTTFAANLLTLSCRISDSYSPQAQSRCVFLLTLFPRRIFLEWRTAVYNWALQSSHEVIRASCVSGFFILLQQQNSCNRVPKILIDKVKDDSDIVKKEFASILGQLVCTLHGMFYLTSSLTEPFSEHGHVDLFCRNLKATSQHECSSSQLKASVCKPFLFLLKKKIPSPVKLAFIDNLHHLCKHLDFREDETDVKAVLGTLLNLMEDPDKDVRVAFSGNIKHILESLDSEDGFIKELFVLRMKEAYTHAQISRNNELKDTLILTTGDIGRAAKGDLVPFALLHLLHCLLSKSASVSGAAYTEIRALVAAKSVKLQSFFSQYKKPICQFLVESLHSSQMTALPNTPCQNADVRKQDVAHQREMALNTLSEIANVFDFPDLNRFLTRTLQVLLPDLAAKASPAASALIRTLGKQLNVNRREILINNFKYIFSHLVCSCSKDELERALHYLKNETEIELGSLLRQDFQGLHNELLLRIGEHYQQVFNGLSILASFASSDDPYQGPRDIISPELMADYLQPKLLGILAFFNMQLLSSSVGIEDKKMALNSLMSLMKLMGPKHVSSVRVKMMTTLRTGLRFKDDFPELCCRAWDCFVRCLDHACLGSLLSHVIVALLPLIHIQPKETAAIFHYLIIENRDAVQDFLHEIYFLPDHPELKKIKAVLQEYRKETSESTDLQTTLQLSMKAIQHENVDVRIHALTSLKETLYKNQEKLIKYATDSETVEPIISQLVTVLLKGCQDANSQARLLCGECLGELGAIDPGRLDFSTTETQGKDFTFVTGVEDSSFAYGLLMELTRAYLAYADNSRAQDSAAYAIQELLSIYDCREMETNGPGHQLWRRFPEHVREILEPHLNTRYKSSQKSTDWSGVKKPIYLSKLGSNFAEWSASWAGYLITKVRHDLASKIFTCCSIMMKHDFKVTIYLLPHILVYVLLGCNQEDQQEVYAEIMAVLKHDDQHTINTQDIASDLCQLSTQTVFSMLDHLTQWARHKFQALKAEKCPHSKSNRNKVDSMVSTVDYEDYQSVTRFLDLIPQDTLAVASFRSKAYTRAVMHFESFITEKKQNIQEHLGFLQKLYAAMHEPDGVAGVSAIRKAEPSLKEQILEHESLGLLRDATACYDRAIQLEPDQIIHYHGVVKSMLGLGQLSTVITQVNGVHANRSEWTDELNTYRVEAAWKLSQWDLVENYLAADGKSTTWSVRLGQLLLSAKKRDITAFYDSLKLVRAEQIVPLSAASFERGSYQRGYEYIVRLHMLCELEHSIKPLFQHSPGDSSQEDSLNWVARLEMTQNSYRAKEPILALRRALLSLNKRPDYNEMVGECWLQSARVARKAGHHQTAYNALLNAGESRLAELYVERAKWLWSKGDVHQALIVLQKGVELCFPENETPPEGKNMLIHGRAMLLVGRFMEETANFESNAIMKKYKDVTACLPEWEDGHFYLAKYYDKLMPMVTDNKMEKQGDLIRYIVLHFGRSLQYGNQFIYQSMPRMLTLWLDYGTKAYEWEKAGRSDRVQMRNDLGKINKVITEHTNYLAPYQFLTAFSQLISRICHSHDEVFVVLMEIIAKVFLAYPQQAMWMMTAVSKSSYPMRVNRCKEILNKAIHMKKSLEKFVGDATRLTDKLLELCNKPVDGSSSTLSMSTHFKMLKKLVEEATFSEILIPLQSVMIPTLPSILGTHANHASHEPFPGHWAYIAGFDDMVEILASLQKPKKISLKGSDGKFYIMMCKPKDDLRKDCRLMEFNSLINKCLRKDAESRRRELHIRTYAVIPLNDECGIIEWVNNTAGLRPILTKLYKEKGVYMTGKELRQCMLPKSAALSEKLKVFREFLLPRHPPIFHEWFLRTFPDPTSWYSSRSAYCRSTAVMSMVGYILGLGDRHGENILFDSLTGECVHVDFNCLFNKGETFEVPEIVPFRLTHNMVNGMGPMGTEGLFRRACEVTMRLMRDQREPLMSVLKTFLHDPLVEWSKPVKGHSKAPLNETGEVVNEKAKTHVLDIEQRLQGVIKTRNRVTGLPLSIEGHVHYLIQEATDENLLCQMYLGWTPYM

[7] = Intrinsic clearance in human hepatocyte assessed per 10^6 cells; format: ADME, cell-based; conditions: hepatocytes, read-out: CLH
[8] = Lipophilicity, logD of the compound at pH 7.4; format: physicochemical; conditions: buffer
[9] = Aqueous solubility of the compound in pH 7.4; format: physicochemical; conditions: buffer
[10] = Apparent permeability across apical to basolateral side in dog MDCKII-MDR1 cells overexpressing BCRP at 0.1 uM incubated for 90 mins by LC-MS/MS analysis; format: ADME, cell-based, Canis lupus familiaris, MDCK-MDR1
[11] = Apparent permeability across apical to basolateral side in dog MDCKII-MDR1 cells overexpressing BCRP at 1 uM incubated for 90 mins by LC-MS/MS analysis; format: ADME, cell-based, Canis lupus familiaris, MDCK-MDR1
[12] = Intrinsic clearance in rat hepatocyte assessed per 10^6 cells; format: ADME, cell-based; conditions: hepatocytes, read-out: CLH
[13] = Tmax in Cynomolgus monkey at iv administered as bolus injection measured at 4 to 90 mins by gamma counter analysis; format: ADME, organism-based, Macaca fascicularis; conditions: in vivo, time 4-90 min
[14] = biological target: Phosphatidylinositol 4,5-bisphosphate 3-kinase catalytic subunit alpha isoform (Homo sapiens, UniProt P42336); assay: Inhibition of PI3Kalpha in human BT-474 cells incubated for 140 mins by ELISA; format: cell-based
Sequence of Phosphatidylinositol 4,5-bisphosphate 3-kinase catalytic subunit alpha isoform (P42336 whole entry, canonical isoform): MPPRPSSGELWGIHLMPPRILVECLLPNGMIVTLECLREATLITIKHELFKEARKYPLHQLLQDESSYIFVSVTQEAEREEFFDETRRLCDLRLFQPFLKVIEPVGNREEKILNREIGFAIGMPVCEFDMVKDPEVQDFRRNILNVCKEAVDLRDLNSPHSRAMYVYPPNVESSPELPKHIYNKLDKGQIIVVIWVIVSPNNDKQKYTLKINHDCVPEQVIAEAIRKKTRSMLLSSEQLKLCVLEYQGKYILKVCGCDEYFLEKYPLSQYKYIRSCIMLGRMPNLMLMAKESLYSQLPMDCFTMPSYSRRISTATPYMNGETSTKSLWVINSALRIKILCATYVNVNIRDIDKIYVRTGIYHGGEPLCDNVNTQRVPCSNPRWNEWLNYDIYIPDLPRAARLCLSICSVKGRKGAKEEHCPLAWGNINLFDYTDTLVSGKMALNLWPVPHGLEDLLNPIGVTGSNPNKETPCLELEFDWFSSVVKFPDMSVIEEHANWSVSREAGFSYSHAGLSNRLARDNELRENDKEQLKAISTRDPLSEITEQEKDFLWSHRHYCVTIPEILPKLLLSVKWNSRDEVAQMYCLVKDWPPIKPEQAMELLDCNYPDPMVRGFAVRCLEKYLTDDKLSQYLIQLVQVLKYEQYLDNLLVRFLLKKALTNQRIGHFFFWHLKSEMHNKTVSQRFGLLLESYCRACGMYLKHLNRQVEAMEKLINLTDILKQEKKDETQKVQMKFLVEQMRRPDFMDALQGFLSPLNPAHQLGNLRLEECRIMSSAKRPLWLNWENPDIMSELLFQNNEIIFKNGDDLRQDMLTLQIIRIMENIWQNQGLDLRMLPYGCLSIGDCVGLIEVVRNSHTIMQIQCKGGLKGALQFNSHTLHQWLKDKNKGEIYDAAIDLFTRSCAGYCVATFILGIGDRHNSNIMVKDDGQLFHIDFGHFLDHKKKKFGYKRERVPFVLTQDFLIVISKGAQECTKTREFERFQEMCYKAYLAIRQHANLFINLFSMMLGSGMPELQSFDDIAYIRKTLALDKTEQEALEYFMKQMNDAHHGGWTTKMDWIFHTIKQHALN

[15] = Plasma protein binding in dog assessed as unbound fraction incubated for 16 hrs by equilibrium dialysis based UPLC-MS/MS analysis; format: ADME, cell-free, Canis lupus familiaris
[16] = Plasma protein binding in rat assessed as unbound fraction incubated for 16 hrs by equilibrium dialysis based UPLC-MS/MS analysis; format: ADME, cell-free
[17] = biological target: DNA-dependent protein kinase catalytic subunit (Homo sapiens, UniProt P78527); assay: Inhibition of DNA-PK (unknown origin)
[18] = Half life in dog at 2 mg/kg,po or 1 mg/kg,iv administration measured for 24 hrs by LC-MS/MS analysis; format: ADME, organism-based, Canis lupus familiaris; conditions: in vivo
[19] = Half life in rat at 1 mg/kg,po or 0.5 mg/kg,iv administration measured for 24 hrs by LC-MS/MS analysis; format: ADME, organism-based; conditions: in vivo
[20] = Plasma protein binding in human assessed as unbound fraction incubated for 16 hrs by equilibrium dialysis based UPLC-MS/MS analysis; format: ADME, cell-free
[21] = biological target: Serine/threonine-protein kinase mTOR (Homo sapiens, UniProt P42345); assay: Inhibition of mTOR in human MDA-MB-468 cells incubated for 2.5 hrs by Alexa Fluor 488 staining based fluorescence analysis; format: cell-based

IC50 [6]	hepatocyte CLint [7]	logD [8]	solubility [9]	Papp A→B at […], 0.1 µM [10]	Papp A→B at […], 1 µM [11]	hepatocyte CLint [12]	other results	Compound
							bioavailability [1]: 57%; bioavailability [2]: 54%; Vdss [3]: 4.3 L/kg; pKa [4]: 9.4; Vdss [5]: 18 L/kg	CN(C)CCCOc1ccc(-c2ccc3ncc4c(c3c2)n(C2CCOCC2)c(=O)n4C)cn1
> 12.6 µM	< 3 µL/min/1e6 cells	2.3	19 µM (≈ 7.68 µg/mL)					COCc1ccc(-c2ccc3ncc4c(c3c2)n(C2CCOCC2)c(=O)n4C)cn1
	3.2 µL/min/1e6 cells	2.5	125 µM (≈ 50.6 µg/mL)	35 ×10⁻⁶ cm/s	27 ×10⁻⁶ cm/s	28 µL/min/1e6 cells		COCc1ccc(-c2ccc3ncc4c(c3c2)n([C@H]2CCCOC2)c(=O)n4C)cn1
							Tmax [13]: 0.333 h	CN(C)CCCOc1ccc(-c2ccc3ncc4c(c3c2)n(C2CCOCC2)c(=O)n4[11CH3])cn1
> 31.6 µM	18 µL/min/1e6 cells	2.7	323 µM (≈ 135 µg/mL)		24 ×10⁻⁶ cm/s	46 µL/min/1e6 cells		CC(C)n1c(=O)n(C)c2cnc3ccc(-c4ccc(OCCCN(C)C)cc4)cc3c21
	6.2 µL/min/1e6 cells	2.4	> 1000 µM		27 ×10⁻⁶ cm/s	15 µL/min/1e6 cells		CC(C)n1c(=O)n(C)c2cnc3ccc(-c4ccc(O[C@H]5CCN(C)C5)nc4)cc3c21
> 31.6 µM	6.7 µL/min/1e6 cells	2.1	680 µM (≈ 298 µg/mL)	23 ×10⁻⁶ cm/s	56 ×10⁻⁶ cm/s	13 µL/min/1e6 cells	IC50 [14]: 15.8 µM; fraction unbound at 16 h [15]: 0.42; fraction unbound at 16 h [16]: 0.17; IC50 [17]: > 31.6 µM; half-life [18]: 6.4 h; bioavailability [1]: 48%; bioavailability [2]: 31%; Vdss [3]: 4.1 L/kg; half-life [19]: 3.2 h; fraction unbound at 16 h [20]: 0.32; IC50 [21]: > 31.6 µM; Vdss [5]: 18 L/kg	CC(C)n1c(=O)n(C)c2cnc3cc(F)c(-c4ccc(OCCCN(C)C)nc4)cc3c21
	34 µL/min/1e6 cells	2.7	42 µM (≈ 15.2 µg/mL)	39 ×10⁻⁶ cm/s		9 µL/min/1e6 cells		COCc1ccc(-c2ccc3ncc4c(c3c2)n(C(C)C)c(=O)n4C)cn1
> 15.8 µM	2.1 µL/min/1e6 cells	1.9	39 µM (≈ 16.9 µg/mL)	5 ×10⁻⁶ cm/s		19 µL/min/1e6 cells		CC(C)n1c(=O)n(C)c2cnc3ccc(-c4ccc(OCCCCN(C)C)nc4)cc3c21
	2.4 µL/min/1e6 cells	2.6	826 µM (≈ 380 µg/mL)		25 ×10⁻⁶ cm/s	5.8 µL/min/1e6 cells		CC(C)n1c(=O)n(C)c2cnc3ccc(-c4ccc(OCCCN5CCCCC5)nc4)cc3c21
> 31.6 µM	5.7 µL/min/1e6 cells	1.7	> 1000 µM	15 ×10⁻⁶ cm/s	23 ×10⁻⁶ cm/s	15 µL/min/1e6 cells		CC(C)n1c(=O)n(C)c2cnc3ccc(-c4ccc(OC[C@@H]5CCN(C)C5)nc4)cc3c21
	4.8 µL/min/1e6 cells	3	10 µM (≈ 4.17 µg/mL)	18 ×10⁻⁶ cm/s	32 ×10⁻⁶ cm/s	44 µL/min/1e6 cells	pKa [4]: 7.1	CC(C)n1c(=O)n(C)c2cnc3ccc(-c4ccc(N5CC(N(C)C)C5)nc4)cc3c21
> 25.1 µM	6.1 µL/min/1e6 cells	2.1	421 µM (≈ 171 µg/mL)		52 ×10⁻⁶ cm/s	24 µL/min/1e6 cells		CC(C)n1c(=O)n(C)c2cnc3ccc(-c4ccc(OCCN(C)C)nc4)cc3c21
	3.8 µL/min/1e6 cells	3	137 µM (≈ 59 µg/mL)		22 ×10⁻⁶ cm/s	25 µL/min/1e6 cells		CC(C)n1c(=O)n(C)c2cnc3ccc(-c4ccc(N5CC[C@H](N(C)C)C5)nc4)cc3c21
> 31.6 µM	< 1 µL/min/1e6 cells	1.7	928 µM (≈ 398 µg/mL)		6 ×10⁻⁶ cm/s	2.4 µL/min/1e6 cells		CC(C)n1c(=O)n(C)c2cnc3ccc(-c4ccc(N5CC6(CN(C)C6)C5)nc4)cc3c21
	8.7 µL/min/1e6 cells	2.7	604 µM (≈ 287 µg/mL)	9.7 ×10⁻⁶ cm/s	18 ×10⁻⁶ cm/s	8.7 µL/min/1e6 cells		CO[C@H]1CC[C@H](n2c(=O)n(C)c3cnc4ccc(-c5ccc(OCCCN(C)C)cc5)cc4c32)C1
	2.6 µL/min/1e6 cells	2.4	> 1000 µM	17 ×10⁻⁶ cm/s		6.6 µL/min/1e6 cells	IC50 [14]: 2 µM; fraction unbound at 16 h [15]: 0.22; fraction unbound at 16 h [16]: 0.04; bioavailability [1]: 19%; Vdss [3]: 2.4 L/kg; half-life [19]: 4 h; fraction unbound at 16 h [20]: 0.19; IC50 [21]: > 1.26 µM	CO[C@H]1C[C@H](n2c(=O)n(C)c3cnc4ccc(-c5ccc(OCCCN6CCCCC6)nc5)cc4c32)C1
> 31.6 µM	6.5 µL/min/1e6 cells	3.2	17 µM (≈ 7.39 µg/mL)	17 ×10⁻⁶ cm/s	19 ×10⁻⁶ cm/s	22 µL/min/1e6 cells	pKa [4]: 7.8	CC(C)n1c(=O)n(C)c2cnc3cc(F)c(-c4ccc(N5CCN(C)CC5)nc4)cc3c21
> 31.6 µM	2.4 µL/min/1e6 cells	2.4	787 µM (≈ 364 µg/mL)	9.4 ×10⁻⁶ cm/s	22 ×10⁻⁶ cm/s	6.3 µL/min/1e6 cells	pKa [4]: 9.1	CC(C)n1c(=O)n(C)c2cnc3cc(F)c(-c4ccc(N5CCC(N(C)C)CC5)nc4)cc3c21
	< 1 µL/min/1e6 cells	2.7	521 µM (≈ 225 µg/mL)	39 ×10⁻⁶ cm/s		12 µL/min/1e6 cells	IC50 [14]: > 5.01 µM; fraction unbound at 16 h [15]: 0.23; fraction unbound at 16 h [16]: 0.14; IC50 [17]: 1.58 µM; half-life [18]: 3.3 h; bioavailability [1]: 39%; bioavailability [2]: 9%; Vdss [3]: 1.9 L/kg; half-life [19]: 1.1 h; fraction unbound at 16 h [20]: 0.08; IC50 [21]: 0.501 µM; Vdss [5]: 3.7 L/kg	COCc1ccc(-c2ccc3ncc4c(c3c2)n([C@@H]2CCOCC2(C)C)c(=O)n4C)cn1
> 15.8 µM	2.9 µL/min/1e6 cells	2.5	88 µM (≈ 44.1 µg/mL)	7.5 ×10⁻⁶ cm/s	13 ×10⁻⁶ cm/s	5.3 µL/min/1e6 cells		Cn1c(=O)n(C2CCOCC2)c2c3cc(-c4ccc(OCCCN5CCCCC5)cc4)ccc3ncc21
	3.5 µL/min/1e6 cells	2	990 µM (≈ 400 µg/mL)		3.2 ×10⁻⁶ cm/s	20 µL/min/1e6 cells		COCc1ccc(-c2ccc3ncc4c(c3c2)n([C@H]2C[C@@H](CO)C2)c(=O)n4C)cn1
> 31.6 µM	7.9 µL/min/1e6 cells	2.4	851 µM (≈ 392 µg/mL)	9.7 ×10⁻⁶ cm/s	22 ×10⁻⁶ cm/s	8.1 µL/min/1e6 cells		CN(C)CCCOc1ccc(-c2ccc3ncc4c(c3c2)n([C@@H]2CCCOC2)c(=O)n4C)cc1
	5.3 µL/min/1e6 cells	3	789 µM (≈ 330 µg/mL)	37 ×10⁻⁶ cm/s	24 ×10⁻⁶ cm/s	40 µL/min/1e6 cells		COCc1ccc(-c2ccc3ncc4c(c3c2)n([C@@H]2CC[C@@H](OC)C2)c(=O)n4C)cn1 (relative stereo)
